Results from patent US12637498B2, “PDLIM2 as a biomarker for cancer and as an anti-cancer treatment target” (UNIVERSITY OF PITTSBURGH—OF THE COMMONWEALTH SYSTEM OF …, priority 2019, dated 2026).
“Also recorded” adds a separate entry of the source.

Experiments:
PD-L1 [1] = test: qPCR of PD-L1 in lung cancer cells; assay type: cell-based, human; conditions: lung cancer cells
Excerpt: Mouse lung tissues and BAL cells were subjected to RNA extraction, RNA reverse transcription and real-time PCR as described (Li et al., Oncoimmunology 7, e1435250 (2018); Sun et al., Bio. Protoc. 7, pii: e2287 (2017)).

PDLIM2 [2] = test: qPCR analysis of PDLIM2 in mouse MAD109 lung cancer cells; assay type: cell-based
[3] = tested on: lung cancer induced by urethane; test: Urethane model of lung cancer, tumor examination; assay type: in vivo, mouse; conditions: ΔSPC mice (lung epithelial PDLIM2 deletion), 5-aza-dC and MS275 combination therapy (Epi)
Experimental: (§1) Urethane model: 6-8-week-old mice under FVB/N background were intraperitoneally (i.p.) injected with urethane (1 g/kg body weight, Sigma-Aldrich, St. Louis, MO, USA) once a week for six weeks. All mice were sacrificed for lung tumor examinations seven (for no drug treatment experiments) or six (for drug treatment experiments) weeks post urethane treatment. For drug treatment experiments, the epigenetic agents 5-aza-dC (1 mg/kg body weight, Sigma-Aldrich, St. Louis, MO, USA) and MS-275 (1 mg/kg body weight, Selleckchem, Houston, TX, USA), chemotherapeutic drugs carboplatin (30 mg/kg body weight, AdipoGen, San Diego, CA, USA) and paclitaxel (15 mg/kg body weight, AdipoGen, San Diego, CA, USA), and/or PD-1 neutralizing antibody (200 μg/mouse, BioXCell, West Lebanon, NH, USA) were i.p injected as indicated in FIG. 4. Surface tumors in mouse lungs were counted by three blinded readers under a dissecting microscope, and tumor diameters were measured by microcalipers. K-Ras^G12D model: 6-8-week-old mice under FVB/N background were intranasally administered 1×10^7 plaque-forming units of Cre-expressing adenovirus (adenocre; Gene Transfer Vector Core, University of Iowa, Iowa City, IA). Three months post AdenoCre treatment, all mice were sacrificed for lung tumor examinations.
PDLIM2flx/flx/SP-C-rtTAtg/−/(tetO)7CMV-Cretg/tg (ΔSPC) mice under a pure FVB/N background and PDLIM2−/− mice under a pure BABL/C background have been described before (Sun et al., Nat. Commun. 2019. 10, 5324). For lung carcinogenesis, six to eight week old ΔSPC and wild type FVB/N mice were intraperitoneally (i.p.) injected with urethane (1 mg/g body weight, Sigma-Aldrich, St. Louis, MO, USA) once a week for six consecutive weeks, followed by different treatment as shown in FIGS. 45A and 49A. Mice were sacrificed for lung inflammation and tumor examinations at six weeks post urethane treatment. Surface tumors in mouse lungs were counted blinded under a dissecting microscope, and tumor diameters were measured by microcalipers. […]

PD-L1 [4] = test: IHC staining of PD-L1 in lung cancer (urethane model); assay type: in vivo, mouse; conditions: 5-aza-dC and MS-275 together
Experimental: as §1
Mouse or tissues were excised, fixed in formalin, embedded in paraffin, and cut into […] sections. Sections were stained with H&E, or subjected to sequential incubations with different primary antibodies and peroxidase-conjugated goat anti-rabbit secondary antibodies. The human lung tumor tissue arrays were described previously (Sun et al., Oncogene 35, 2299-2310 (2016)).
Lung tissues were excised, fixed in formalin, embedded in paraffin, and cut into 4-μm-thick sections. Sections were stained with H&E, or subjected to sequential incubations with the indicated primary antibodies, biotinylated secondary antibodies and streptavidin-HRP.

PDLIM2 [5] = test: IHC staining of PDLIM2 in mouse lung tumors and tissues (urethane model); assay type: in vivo
Experimental: as §1
Mouse or tissues were excised, fixed in formalin, embedded in paraffin, and cut into 4-pm-thick sections. […]

[6] = Toxicity: animal body weight and H&E staining of major organs; assay type: in vivo, mouse; conditions: mice with lung cancer; 1 mg/kg of 5-aza-dC and MS-275 twice per week for 6 weeks
human lung cancer cells = test: Cell growth assays; assay type: cell-based; conditions: human lung cancer cells with PDLIM2 knockdown (shRNA), in vitro
Experimental: Cells were seeded into 12-well plates at a density of 5,000 cells per well, in the presence or absence of the indicated treatment. Cell density was determined by replacing the medium with 2 μmol/L of calcein AM in 1× dissociation solution (Trevigen) at the indicated time points. After 1 h of incubation, diesterase activity (relative fluorescence units) was measured with a Tecan Infinite 200 Microplate Reader, using an excitation wavelength of 485 nm and emission wavelength of 520 nm.

PDLIM2 [7] = test: qPCR analysis of PDLIM2 expression in human lung cancer cell lines; assay type: cell-based

Nc1ccccc1NC(=O)c1ccc(CNC(=O)OCc2cccnc2)cc1 [MS-275, entinostat]
PD-L1 expression (qPCR) (PD-L1 [1]): PD-L1 induction | PDLIM2 expression (qPCR) (PDLIM2 [2]): PDLIM2 re-induction | lung cancer treatment (tumor examination) [3]: completely lost the ability to treat lung cancer; also recorded: complete resistance | PD-L1 expression in lung cancer (IHC staining) (PD-L1 [4]): PD-L1 induction | PDLIM2 expression in murine lung cancers (PDLIM2 [5]; both in vitro and in vivo): could be restored | PDLIM2 expression in mouse lung tumor (IHC staining) (PDLIM2 [5]; urethane model, 5-aza-dC and MS-275 (epigenetic drugs) given together): PDLIM2 recovery | animal body weight [6]: body weight loss | cell growth (human lung cancer cells): protected human lung cancer cells; also recorded: protection of human lung cancer cells | PDLIM2 expression (qPCR) (PDLIM2 [7]; H460 human lung cancer cells): PDLIM2 recovery; also recorded: time-dependent induction of PDLIM2 | PDLIM2 expression (qPCR) (PDLIM2 [7]; human lung cancer cell lines): induction of PDLIM2 | PDLIM2 expression (qPCR) (PDLIM2 [7]; human lung cancer cell lines, listed as MS275): induced PDLIM2 re-expression | PDLIM2 expression (qPCR) (PDLIM2 [7]; normal human lung epithelial cell line NL-20 with oncogenic K-Ras Q61H mutant): PDLIM2 re-induction
